Experimental findings from patent US20120220581A1, “IMIDAZO[1,2-b]PYRIDAZINE DERIVATIVES AND THEIR USE AS PDE10 INHIBITORS” (Janssen-Cilag, S.A., priority 2009, published 2012) are described below.

Structures are written as SMILES. Where two headings read alike, the source gives them in different places.

Assay [1] has as its target other members of the PDE family (Homo sapiens, UniProt Q14432). Put plainly: In vitro PDE selectivity assay (SPA), other members of the PDE family (protocols in Table A). Type of assay: biochemical. To be noted: hPDE3A; read-out: PDE 3A (expressed as pIC50) (converted). The method, boiled down: (§1)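 Inhibition of each PDE isoform was measured by scintillation proximity assay with ³H-cyclic nucleotide substrate, using incubation buffer, substrate concentration, incubation time and stop solution adapted per isoform. Compounds were tested in dose-response against 1% DMSO controls and enzyme-free blanks. IC50 came from a least-squares fit of blank-subtracted % of control versus concentration.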

Assay [2] addresses other members of the PDE family (Homo sapiens, UniProt Q13946). The assay is described as above. The assay is classed as biochemical. To be noted: hPDE7A1; read-out: PDE 7A (expressed as pIC50) (converted). The method in brief:
as §1

The target in assay [3] is other members of the PDE family (Homo sapiens, UniProt O76083). The assay is described as above. The settings on record: hPDE9A; read-out: PDE 9A (expressed as pIC50) (converted). The assay is classed as biochemical. The method in brief: as §1
Assay [4] addresses other members of the PDE family (Homo sapiens, UniProt Q9HCR9). The assay is described as above. Type of assay: biochemical. The settings on record: hPDE11A4; read-out: PDE 11A4 (expressed as pIC50) (converted). The method in brief:
as §1

Assay [5] addresses other members of the PDE family (Homo sapiens, UniProt O00408). The description is as above. To be noted: hPDE2A; read-out: PDE 2A (expressed as pIC50) (converted). The assay is classed as biochemical. The method, boiled down:
as §1

Assay [6] deals with PDE5A3 (Homo sapiens, UniProt O76074). Nature of the assay: In vitro PDE selectivity assay (SPA), PDE5A3. Type of assay: biochemical. To be noted: hPDE5A3; read-out: PDE 5A3 (expressed as pIC50) (converted). As for the experimental part: (§2) Rat recombinant PDE10A (rPDE10A2) was expressed in Sf9 cells using a recombinant rPDE10A baculovirus construct. Cells were harvested after 48 h of infection and the rPDE10A protein was purified by metal chelate chromatography on Ni-sepharose 6FF. Tested compounds were dissolved and diluted in 100% DMSO to a concentration 100 fold of the final concentration in the assay. Compound dilutions (0.4 μl) were added in 384 well plates to 20 μl of incubation buffer (50 mM Tris pH 7.8, 8.3 mM MgCl2, 1.7 mM EGTA). 10 μl of rPDE10A enzyme in incubation buffer was added and the reaction was started by addition of 10 μl substrate to a final concentration of 60 nM cAMP and 0.008 μCi ^3H-cAMP. The reaction was incubated for 60 minutes at room temperature. After incubation, the reaction was stopped with 20 μl of stop solution consisting of 17.8 mg/ml PDE SPA (scintillation proximity assay) beads. After sedimentation of the beads during 30 minutes the radioactivity was measured in a Perkin Elmer Topcount scintillation counter and results were expressed as cpm. For blanc values the enzyme was omitted from the reaction and replaced by incubation buffer. Control values were obtained by addition of a final concentration of 1% DMSO instead of compound. The same assay principle is applied for the measurement of the affinity of the compound for other members of the PDE family with appropriate modifications in incubation buffer, substrate concentration, incubation time and stop solution. An overview of the different protocols is presented in table A. A best fit curve is fitted by a minimum sum of squares method to the plot of % of control value substracted with blanc value versus compound concentration and the half maximal inhibitory concentration (IC50) value is derived from this curve.
(§3) The compounds of the invention are generally selective for PDE10 compared to other PDEs and there are a few that also have affinity for PDE1B1, 4D3 and 5A3.

Assay [7] concerns the target T1, Rat recombinant PDE10A (rPDE10A2) (Rattus norvegicus, UniProt Q9QYJ6).
T1 construct: inferred from the Ni metal chelate purification; made in house; host or cells: Sf9 insect cells (baculovirus)
T1 sequence (Q9QYJ6 1-794): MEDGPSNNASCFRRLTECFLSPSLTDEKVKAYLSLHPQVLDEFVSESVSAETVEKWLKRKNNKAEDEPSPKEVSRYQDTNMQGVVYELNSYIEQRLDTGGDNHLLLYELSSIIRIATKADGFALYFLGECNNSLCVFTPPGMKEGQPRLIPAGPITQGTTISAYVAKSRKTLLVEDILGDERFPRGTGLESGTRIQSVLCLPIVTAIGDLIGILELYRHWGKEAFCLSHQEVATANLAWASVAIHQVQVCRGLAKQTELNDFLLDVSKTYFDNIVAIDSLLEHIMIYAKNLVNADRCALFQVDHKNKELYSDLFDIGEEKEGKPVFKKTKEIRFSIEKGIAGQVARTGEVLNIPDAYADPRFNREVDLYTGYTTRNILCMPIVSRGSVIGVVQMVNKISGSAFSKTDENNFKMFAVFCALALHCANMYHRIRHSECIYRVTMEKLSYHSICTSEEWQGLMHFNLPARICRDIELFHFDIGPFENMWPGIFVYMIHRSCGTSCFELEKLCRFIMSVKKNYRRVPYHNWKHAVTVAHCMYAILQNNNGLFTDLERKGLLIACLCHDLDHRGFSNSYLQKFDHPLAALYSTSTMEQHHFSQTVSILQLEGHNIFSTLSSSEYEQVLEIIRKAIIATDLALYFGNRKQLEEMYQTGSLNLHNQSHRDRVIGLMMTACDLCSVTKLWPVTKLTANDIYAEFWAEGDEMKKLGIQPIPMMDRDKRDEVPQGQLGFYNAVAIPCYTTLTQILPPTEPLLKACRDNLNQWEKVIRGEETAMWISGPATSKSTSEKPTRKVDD
Nature of the assay: In vitro assay PDE10A (SPA, 3H-cAMP). Type of assay: biochemical. The method, boiled down: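 Rat PDE10A2 expressed in Sf9 cells and Ni-purified; incubated with 60 nM cAMP plus 0.008 μCi 3H-cAMP in 50 mM Tris pH 7.8, 8.3 mM MgCl2, 1.7 mM EGTA for 60 min at room temperature. Product quantified by scintillation proximity counting; final DMSO 1%.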

Assay [8] concerns the target PDE4D3 (Homo sapiens, UniProt Q08499). Nature of the assay: In vitro PDE selectivity assay (SPA), PDE4D3. Type of assay: biochemical. The settings on record: hPDE4D3; read-out: PDE 4D3 (expressed as pIC50) (converted). As for the experimental part: as §2, §3
For assay [9], the system named is apomorphine-induced stereotypy in rats. Nature of the assay: Apomorphine-induced stereotypy in rats (APO). Type of assay: in vivo. To be noted: Rattus norvegicus, ≧: active in 30% of the animals at the indicated dose, ≦: active in 60%. Here is the method: Apomorphine (1.0 mg/kg, i.v.)-induced stereotypy (compulsive sniffing, licking, chewing) was scored every 5 min over the first hour after injection of apomorphine, following a 1 hour interval pre-treatment with the test compound. The score system was: (3) pronounced, (2) moderate, (1) slight, and (0) absent.

The mark [10] stands for this setting: Table 4 in vitro selectivity, read-out: PDE 10A2 (expressed as pIC50) (converted).
Where [11] appears, read: pIC50 corresponds to the −log IC50 expressed in mol/L, read-out: PDE10A2 pIC50 (converted).
[12] abbreviates: dose at which 50% of the tested animals show the effect.
Setting [13] is: po, * compound not soluble, tested orally as a suspension.

other members of the PDE family (Homo sapiens, UniProt O00408), sequence (O00408 whole entry): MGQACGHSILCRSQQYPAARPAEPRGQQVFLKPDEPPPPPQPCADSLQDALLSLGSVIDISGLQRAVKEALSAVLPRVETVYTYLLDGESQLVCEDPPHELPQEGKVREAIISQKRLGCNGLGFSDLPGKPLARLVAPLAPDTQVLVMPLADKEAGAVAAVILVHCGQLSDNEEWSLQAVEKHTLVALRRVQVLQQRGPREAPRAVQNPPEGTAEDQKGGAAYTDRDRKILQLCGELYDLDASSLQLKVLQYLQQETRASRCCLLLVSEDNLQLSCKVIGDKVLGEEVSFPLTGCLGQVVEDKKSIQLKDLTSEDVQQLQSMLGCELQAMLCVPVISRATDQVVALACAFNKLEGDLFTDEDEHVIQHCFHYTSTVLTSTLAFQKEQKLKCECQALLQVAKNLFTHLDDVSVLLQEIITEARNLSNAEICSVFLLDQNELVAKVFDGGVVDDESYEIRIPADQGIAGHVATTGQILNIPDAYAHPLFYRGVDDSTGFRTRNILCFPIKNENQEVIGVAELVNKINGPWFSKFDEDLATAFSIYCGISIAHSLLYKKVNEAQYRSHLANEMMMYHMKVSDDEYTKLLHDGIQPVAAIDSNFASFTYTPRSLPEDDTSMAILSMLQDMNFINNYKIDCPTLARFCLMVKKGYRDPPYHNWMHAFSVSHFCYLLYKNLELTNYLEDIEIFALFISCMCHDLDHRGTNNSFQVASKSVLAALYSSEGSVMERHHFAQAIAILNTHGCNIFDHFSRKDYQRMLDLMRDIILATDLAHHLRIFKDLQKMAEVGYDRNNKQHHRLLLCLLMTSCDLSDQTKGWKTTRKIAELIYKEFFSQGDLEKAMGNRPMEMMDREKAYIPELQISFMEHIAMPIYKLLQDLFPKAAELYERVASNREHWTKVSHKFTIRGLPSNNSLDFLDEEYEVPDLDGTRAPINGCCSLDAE
PDE4D3, sequence (Q08499 1-673 isoform Q08499-2): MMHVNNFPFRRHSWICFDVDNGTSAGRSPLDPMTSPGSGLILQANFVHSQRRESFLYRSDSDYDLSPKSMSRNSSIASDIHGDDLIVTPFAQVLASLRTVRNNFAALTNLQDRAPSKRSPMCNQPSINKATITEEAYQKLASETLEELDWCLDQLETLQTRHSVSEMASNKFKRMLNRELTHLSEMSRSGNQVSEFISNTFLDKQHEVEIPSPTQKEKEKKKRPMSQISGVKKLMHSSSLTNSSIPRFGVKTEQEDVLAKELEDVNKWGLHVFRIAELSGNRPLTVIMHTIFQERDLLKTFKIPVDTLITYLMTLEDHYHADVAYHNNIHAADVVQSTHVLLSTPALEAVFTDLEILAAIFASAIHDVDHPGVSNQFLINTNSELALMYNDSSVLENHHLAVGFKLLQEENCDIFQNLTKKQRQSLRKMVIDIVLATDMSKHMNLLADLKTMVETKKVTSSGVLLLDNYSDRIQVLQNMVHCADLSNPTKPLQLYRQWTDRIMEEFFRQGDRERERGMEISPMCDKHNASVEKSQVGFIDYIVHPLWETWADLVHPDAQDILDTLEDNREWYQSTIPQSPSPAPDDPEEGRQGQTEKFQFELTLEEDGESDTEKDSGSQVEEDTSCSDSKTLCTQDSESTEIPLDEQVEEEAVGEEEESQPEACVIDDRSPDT
other members of the PDE family (Homo sapiens, UniProt Q14432), sequence (Q14432 whole entry, canonical isoform): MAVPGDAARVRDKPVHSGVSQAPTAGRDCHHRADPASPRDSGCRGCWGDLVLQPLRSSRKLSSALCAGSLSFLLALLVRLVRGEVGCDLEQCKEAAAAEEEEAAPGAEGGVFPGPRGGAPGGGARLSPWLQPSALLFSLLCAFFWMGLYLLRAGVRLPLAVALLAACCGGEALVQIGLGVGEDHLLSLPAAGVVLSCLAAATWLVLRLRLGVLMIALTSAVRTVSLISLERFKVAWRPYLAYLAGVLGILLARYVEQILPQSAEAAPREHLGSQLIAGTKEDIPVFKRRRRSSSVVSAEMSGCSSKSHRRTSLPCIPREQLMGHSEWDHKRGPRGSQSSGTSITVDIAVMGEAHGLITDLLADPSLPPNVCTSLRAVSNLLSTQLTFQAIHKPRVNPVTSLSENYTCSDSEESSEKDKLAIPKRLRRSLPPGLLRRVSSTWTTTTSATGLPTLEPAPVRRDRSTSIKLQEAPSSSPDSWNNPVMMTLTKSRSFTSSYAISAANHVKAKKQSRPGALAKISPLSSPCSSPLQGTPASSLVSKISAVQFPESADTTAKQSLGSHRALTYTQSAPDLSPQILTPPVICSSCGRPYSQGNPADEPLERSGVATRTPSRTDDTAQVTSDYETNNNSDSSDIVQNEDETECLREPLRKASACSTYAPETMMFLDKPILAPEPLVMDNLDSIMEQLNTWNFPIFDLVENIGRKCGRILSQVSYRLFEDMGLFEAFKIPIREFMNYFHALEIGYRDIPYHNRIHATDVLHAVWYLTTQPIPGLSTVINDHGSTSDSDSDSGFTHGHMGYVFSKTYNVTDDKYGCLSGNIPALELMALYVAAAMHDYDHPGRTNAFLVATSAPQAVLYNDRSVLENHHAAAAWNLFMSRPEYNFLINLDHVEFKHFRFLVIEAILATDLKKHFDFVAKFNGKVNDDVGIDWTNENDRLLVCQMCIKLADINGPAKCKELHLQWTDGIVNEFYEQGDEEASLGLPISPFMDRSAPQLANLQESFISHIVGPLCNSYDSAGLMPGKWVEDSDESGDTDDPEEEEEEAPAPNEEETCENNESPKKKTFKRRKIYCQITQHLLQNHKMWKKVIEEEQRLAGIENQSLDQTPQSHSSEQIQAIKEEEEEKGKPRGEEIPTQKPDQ
other members of the PDE family (Homo sapiens, UniProt O76083), sequence (O76083 whole entry): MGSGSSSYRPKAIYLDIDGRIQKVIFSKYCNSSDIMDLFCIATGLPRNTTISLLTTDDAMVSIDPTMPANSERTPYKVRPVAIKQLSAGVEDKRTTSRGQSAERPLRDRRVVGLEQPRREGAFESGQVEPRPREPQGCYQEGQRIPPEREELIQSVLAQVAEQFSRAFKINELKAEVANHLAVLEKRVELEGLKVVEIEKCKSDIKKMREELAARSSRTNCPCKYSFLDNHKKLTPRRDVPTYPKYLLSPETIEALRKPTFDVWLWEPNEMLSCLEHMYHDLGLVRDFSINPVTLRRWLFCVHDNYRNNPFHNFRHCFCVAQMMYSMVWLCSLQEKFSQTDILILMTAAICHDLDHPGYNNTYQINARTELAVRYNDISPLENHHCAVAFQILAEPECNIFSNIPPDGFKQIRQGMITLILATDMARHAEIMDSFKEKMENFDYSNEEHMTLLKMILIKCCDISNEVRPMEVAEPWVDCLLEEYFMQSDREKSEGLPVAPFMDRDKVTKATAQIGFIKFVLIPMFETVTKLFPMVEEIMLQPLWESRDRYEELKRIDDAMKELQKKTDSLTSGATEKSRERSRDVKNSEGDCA
other members of the PDE family (Homo sapiens, UniProt Q13946), sequence (Q13946 whole entry): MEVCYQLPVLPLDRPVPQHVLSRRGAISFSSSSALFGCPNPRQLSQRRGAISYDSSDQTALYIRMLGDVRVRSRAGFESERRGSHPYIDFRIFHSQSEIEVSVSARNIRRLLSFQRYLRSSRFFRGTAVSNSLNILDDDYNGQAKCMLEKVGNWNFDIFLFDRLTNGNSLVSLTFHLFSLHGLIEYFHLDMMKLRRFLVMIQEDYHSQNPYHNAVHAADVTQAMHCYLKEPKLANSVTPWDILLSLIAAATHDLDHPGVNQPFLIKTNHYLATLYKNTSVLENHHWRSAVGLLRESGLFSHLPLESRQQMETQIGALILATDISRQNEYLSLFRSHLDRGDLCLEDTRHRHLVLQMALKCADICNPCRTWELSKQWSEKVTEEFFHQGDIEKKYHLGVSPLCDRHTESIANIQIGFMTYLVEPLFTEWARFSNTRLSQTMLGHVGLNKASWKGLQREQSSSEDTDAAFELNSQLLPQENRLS
other members of the PDE family (Homo sapiens, UniProt Q9HCR9), sequence (Q9HCR9 whole entry): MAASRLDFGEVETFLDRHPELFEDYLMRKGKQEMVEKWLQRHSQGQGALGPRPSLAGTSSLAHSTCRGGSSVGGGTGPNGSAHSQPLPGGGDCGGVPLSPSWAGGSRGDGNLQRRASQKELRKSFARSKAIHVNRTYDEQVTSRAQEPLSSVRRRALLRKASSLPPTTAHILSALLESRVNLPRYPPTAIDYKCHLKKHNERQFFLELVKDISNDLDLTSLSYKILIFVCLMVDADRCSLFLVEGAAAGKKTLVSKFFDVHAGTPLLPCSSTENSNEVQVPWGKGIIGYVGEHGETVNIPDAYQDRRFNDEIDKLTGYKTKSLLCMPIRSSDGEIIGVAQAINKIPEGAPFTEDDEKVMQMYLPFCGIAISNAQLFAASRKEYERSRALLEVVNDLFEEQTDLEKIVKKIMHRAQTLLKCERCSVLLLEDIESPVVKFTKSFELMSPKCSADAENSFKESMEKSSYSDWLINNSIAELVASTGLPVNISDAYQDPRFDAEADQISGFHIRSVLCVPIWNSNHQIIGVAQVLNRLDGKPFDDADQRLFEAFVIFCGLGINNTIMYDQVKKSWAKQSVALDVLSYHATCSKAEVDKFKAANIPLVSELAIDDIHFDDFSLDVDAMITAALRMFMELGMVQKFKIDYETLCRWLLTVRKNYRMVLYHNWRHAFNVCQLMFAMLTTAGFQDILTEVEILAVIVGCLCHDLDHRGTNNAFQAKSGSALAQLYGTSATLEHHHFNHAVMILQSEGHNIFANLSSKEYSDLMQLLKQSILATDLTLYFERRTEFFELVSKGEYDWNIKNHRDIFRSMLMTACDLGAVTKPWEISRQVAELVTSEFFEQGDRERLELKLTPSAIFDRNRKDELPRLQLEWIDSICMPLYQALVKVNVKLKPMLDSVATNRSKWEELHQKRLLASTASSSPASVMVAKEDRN

As for `Cc1nc2c(N3CCOCC3)cc(Cl)nn2c1-c1cnn(CC(F)(F)F)c1` [compound 146, 6-chloro-2-methyl-8-(4-morpholinyl)-3-[1-(2,2,2-trifluoroethyl)-1H-pyrazol-4-yl]-imidazo[1,2-b]pyridazine], the IC50 in assay [1] was greater than 10 µM; in assay [2], 8.51 µM; in assay [3], greater than 10 µM; in assay [4] it was greater than 10 µM; in [5] it was greater than 10 µM; in [6] it was 1.91 µM. Further, the IC50 is 0.0525 µM in assay [7] (setting [10]), 0.0525 µM in [7] (setting [11]) and greater than 10 µM in assay [8].
For the molecule `COCCc1ccc(-c2c(C3CC3)nc3c(-c4ccncc4)ccnn23)cn1` [compound 10, 2-cyclopropyl-3-[6-(2-methoxyethyl)-3-pyridinyl]-8-(4-pyridinyl)-imidazo[1,2-b]pyridazine], the IC50 in assay [1] is greater than 10 µM; in assay [2], greater than 10 µM; in [3], greater than 10 µM; in assay [4], 1.41 µM; in assay [5], 6.61 µM; in assay [6] it was 1.29 µM. The IC50 in [7] (setting [10]) was 0.0115 µM; in assay [7] (setting [11]), 0.0115 µM; in [8], 1.26 µM. For the same molecule, the ED50 (as a rule, the dose that gives a 50% effect, or the effect in half of the subjects) in [9] (setting [12]) was determined as 1.2 mg/kg.
Consider `Cc1nc2c(N3CCOCC3)ccnn2c1-c1ccnc(N2CCOCC2)c1` [compound 91, 2-methyl-8-(4-morpholinyl)-3-[2-(4-morpholinyl)-4-pyridinyl]-imidazo[1,2-b]pyridazine], for which the IC50 is greater than 10 µM in [1]; greater than 10 µM in assay [2]; greater than 10 µM in assay [3]; greater than 10 µM in assay [4]; greater than 10 µM in assay [5]; 8.51 µM in assay [6]. Further, the IC50 in assay [7] (setting [10]) is 0.0468 µM; in [7] (setting [11]), 0.0468 µM; in [8] it was greater than 10 µM. For the same molecule, the ED50 in assay [9] (setting [12]) is 1.2 mg/kg.
As to `Cc1nc2c(-c3ccncc3)ccnn2c1-c1cnn(CC(F)(F)F)c1` [compound 135, 2-methyl-8-(4-pyridinyl)-3-[1-(2,2,2-trifluoroethyl)-1H-pyrazol-4-yl]-imidazo[1,2-b]pyridazine], the IC50 in assay [1] was 7.41 µM; in assay [2], greater than 10 µM; in assay [3] it was greater than 10 µM; in [4] it was 5.89 µM; in assay [5], greater than 10 µM; in [6], 2.57 µM. The IC50 is 0.0182 µM in [7] (setting [10]), 0.0182 µM in assay [7] (setting [11]) and greater than 10 µM in assay [8]. In addition, the ED50 in [9] (setting [13]) came out at 3.1 mg/kg.
Turning to `COC(C)(C)CCc1ccc(-c2c(C)nc3c(N4CCOCC4)ccnn23)cn1` [compound 29, 3-[6-(3-methoxy-3-methylbutyl)-3-pyridinyl]-2-methyl-8-(4-morpholinyl)-imidazo[1,2-b]pyridazine], the IC50 in [1] is greater than 10 µM; in assay [2], greater than 10 µM; in assay [3], greater than 10 µM; in [4], greater than 10 µM; in assay [5] it was 1.2 µM; in assay [6] it was 4.47 µM. Moreover, the IC50 was 0.0437 µM in assay [7] (setting [10]), 0.0437 µM in assay [7] (setting [11]) and greater than 10 µM in assay [8]. The ED50 in assay [9] (setting [12]) was no less than 2.5 mg/kg.
For the molecule `Cc1nc2c(N3CCOCC3)ccnn2c1-c1ccc(C(C)C)nc1` [compound 32, 2-methyl-3-[6-(1-methylethyl)-3-pyridinyl]-8-(4-morpholinyl)-imidazo[1,2-b]pyridazine], the IC50 in [1], in [2], in assay [3], in assay [4], in assay [5] and in assay [6] was greater than 10 µM each time. Besides, the IC50 in assay [7] (setting [10]) was 0.0776 µM; in assay [7] (setting [11]) it was 0.0776 µM; in assay [8], greater than 10 µM. In assay [9] (setting [12]), this molecule showed an ED50 of 5 mg/kg.
As for `Cc1nc2c(N3CCOCC3)ccnn2c1-c1ccc(C2CC2)nc1` [compound 33, 3-(6-cyclopropyl-3-pyridinyl)-2-methyl-8-(4-morpholinyl)-imidazo[1,2-b]pyridazine], the IC50 in [1], in [2], in [3], in assay [4], in assay [5] and in assay [6] was greater than 10 µM each time. The IC50 in assay [7] (setting [10]) was 0.0776 µM; in assay [7] (setting [11]), 0.0776 µM; in assay [8] it was greater than 10 µM. The ED50 in [9] (setting [13]) is no less than 2.5 mg/kg.
Regarding `COCCn1cc(-c2c(C)nc3c(N4CCOCC4)cc(C)nn23)cn1` [compound 133, 3-[1-(2-methoxyethyl)-1H-pyrazol-4-yl]-2,6-dimethyl-8-(4-morpholinyl)-imidazo[1,2-b]pyridazine], the IC50 in assay [1] is greater than 10 µM; in assay [2] it was greater than 10 µM; in [3], greater than 10 µM; in [4], greater than 10 µM; in assay [5], greater than 10 µM; in assay [6] it was 2.4 µM. Further, the IC50 was 0.0955 µM in assay [7] (setting [10]), 0.0955 µM in assay [7] (setting [11]) and greater than 10 µM in [8]. In addition, the ED50 in assay [9] (setting [12]) turned out to be 3.1 mg/kg.
With `COCCn1cc(-c2c(C)nc3c(-c4ccncc4)cc(C)nn23)cn1` [compound 134, 3-[1-(2-methoxyethyl)-1H-pyrazol-4-yl]-2,6-dimethyl-8-(4-pyridinyl)-imidazo[1,2-b]pyridazine], the IC50 in [1] is greater than 10 µM; in [2], 4.9 µM; in assay [3] it was greater than 10 µM; in assay [4] it was 5.37 µM; in assay [5], 8.13 µM; in assay [6] it was 0.589 µM. Further, the results for the IC50 in assay [7] (setting [10]), in assay [7] (setting [11]) and in assay [8] were 0.105 µM, 0.105 µM and 5.5 µM, respectively. Moreover, the ED50 in [9] (setting [12]) amounted to 5 mg/kg.
